In brackets after ≈: the same amount, converted by molar mass.
Assays:
AtAHAS = molecular target: T1, AtAHAS (Arabidopsis thaliana, UniProt P17597); assay: AHAS enzyme inhibition assay; assay type: biochemical
T1 sequence (P17597 56-670): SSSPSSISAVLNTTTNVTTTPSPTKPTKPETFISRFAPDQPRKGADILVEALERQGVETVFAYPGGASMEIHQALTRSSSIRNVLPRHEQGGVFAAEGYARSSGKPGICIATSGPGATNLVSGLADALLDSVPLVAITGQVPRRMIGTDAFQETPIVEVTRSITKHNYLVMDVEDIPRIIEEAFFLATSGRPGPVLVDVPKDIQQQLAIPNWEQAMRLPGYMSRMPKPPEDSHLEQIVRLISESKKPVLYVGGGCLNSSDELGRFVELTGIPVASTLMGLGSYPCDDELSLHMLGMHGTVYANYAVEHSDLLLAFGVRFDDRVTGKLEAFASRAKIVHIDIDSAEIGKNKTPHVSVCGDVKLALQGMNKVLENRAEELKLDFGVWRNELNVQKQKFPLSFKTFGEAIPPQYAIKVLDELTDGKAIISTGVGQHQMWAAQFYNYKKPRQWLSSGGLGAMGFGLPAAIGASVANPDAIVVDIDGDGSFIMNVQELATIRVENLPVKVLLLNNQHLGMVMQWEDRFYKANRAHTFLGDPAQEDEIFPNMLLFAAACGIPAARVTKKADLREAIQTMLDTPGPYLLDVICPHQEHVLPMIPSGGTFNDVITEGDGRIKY

SceAHAS = SceAHAS (Saccharomyces cerevisiae, UniProt P07342); assay: biochemical
Chain of SceAHAS (P07342 91-687): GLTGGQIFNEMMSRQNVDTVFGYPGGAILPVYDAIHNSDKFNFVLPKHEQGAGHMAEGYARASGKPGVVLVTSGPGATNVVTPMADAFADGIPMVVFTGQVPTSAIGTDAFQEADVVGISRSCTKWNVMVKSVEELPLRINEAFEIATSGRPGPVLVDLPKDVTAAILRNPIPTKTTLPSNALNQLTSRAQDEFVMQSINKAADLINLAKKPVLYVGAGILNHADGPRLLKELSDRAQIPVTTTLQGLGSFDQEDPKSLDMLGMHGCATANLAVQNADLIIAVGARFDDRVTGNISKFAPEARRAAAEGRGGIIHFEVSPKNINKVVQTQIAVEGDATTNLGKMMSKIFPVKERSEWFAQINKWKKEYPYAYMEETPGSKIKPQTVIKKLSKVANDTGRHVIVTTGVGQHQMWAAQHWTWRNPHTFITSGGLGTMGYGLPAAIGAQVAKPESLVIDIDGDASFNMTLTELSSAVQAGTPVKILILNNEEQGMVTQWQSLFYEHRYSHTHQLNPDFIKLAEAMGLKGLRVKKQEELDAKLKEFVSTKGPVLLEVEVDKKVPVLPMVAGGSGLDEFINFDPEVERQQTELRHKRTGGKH

(UniProt Z9DR95LUB2) = assay: AHAS enzyme inhibition assay; assay type: biochemical, Trichoderma afroharzianum t-22
ThAHAS = assay: AHAS enzyme inhibition assay; assay type: biochemical, Trichoderma afroharzianum t-22
ThAHAS^M = assay: AHAS enzyme inhibition assay; assay type: biochemical, Trichoderma afroharzianum t-22; settings: for IC50: [E]=0.5 μM
ThAHAS K247A = molecular target: T2, ThAHAS K247A (Trichoderma afroharzianum, UniProt A0ABF7PL51, K247A); assay: AHAS enzyme inhibition assay, K247A mutant; assay type: biochemical, Trichoderma afroharzianum t-22
T2 sequence (A0ABF7PL51 53-689 K247A): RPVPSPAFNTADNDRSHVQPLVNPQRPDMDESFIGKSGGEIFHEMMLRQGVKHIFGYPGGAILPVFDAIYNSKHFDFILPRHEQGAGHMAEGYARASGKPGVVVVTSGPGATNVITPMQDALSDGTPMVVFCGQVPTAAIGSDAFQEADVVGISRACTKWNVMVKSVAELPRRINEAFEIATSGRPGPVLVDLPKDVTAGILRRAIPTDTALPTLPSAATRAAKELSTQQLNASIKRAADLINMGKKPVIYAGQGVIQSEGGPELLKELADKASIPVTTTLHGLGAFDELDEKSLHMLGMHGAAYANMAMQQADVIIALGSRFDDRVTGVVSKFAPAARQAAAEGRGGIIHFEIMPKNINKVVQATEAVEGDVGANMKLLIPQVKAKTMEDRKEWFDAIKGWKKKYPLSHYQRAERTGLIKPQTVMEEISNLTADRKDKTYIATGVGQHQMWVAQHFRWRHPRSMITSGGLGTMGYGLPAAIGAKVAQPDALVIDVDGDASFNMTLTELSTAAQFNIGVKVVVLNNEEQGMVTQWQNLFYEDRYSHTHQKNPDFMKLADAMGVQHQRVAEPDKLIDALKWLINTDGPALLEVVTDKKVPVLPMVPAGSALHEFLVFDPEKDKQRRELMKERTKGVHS

FuoAHAS = FuoAHAS (Fusarium oxysporum, UniProt X0CFW6); assay: AHAS enzyme inhibition assay; assay type: biochemical, F. oxysporum NRRL 32931
ScsAHAS = molecular target: T3, ScsAHAS (Sclerotinia sclerotiorum, UniProt A7EMK2); assay: AHAS enzyme inhibition assay; assay type: biochemical, S. sclerotiorum 1980 UF-70
T3 sequence (A7EMK2 30-699): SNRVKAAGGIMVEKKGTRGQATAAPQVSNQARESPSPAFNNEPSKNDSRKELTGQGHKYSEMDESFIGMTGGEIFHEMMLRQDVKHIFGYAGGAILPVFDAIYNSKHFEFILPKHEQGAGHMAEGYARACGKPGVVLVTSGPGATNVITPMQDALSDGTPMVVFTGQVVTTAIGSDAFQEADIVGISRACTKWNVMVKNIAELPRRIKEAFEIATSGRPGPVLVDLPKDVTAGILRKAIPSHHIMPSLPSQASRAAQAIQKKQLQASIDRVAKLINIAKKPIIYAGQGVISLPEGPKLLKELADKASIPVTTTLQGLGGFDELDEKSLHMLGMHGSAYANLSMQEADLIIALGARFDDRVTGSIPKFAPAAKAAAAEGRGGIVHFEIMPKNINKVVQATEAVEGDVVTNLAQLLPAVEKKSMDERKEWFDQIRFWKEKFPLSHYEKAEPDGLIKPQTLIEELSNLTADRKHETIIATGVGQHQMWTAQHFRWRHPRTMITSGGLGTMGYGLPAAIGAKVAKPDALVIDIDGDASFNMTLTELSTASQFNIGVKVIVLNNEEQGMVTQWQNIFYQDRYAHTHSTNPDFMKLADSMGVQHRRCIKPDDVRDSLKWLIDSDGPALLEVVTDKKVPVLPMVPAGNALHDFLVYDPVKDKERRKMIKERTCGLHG

[1] = tested on: S. cerevisiae Δilv2 strain with AHAS complementation; assay type: cell-based; settings: under assay concentrations, even in Ile and Val supplemented growth media
F. oxysporum = assay: Antifungal resazurin assay; assay type: cell-based
Sclerotinia sclerotiorum = settings: plant pathogenic fungus; cited from earlier work
Rhizoctonia solani = settings: plant pathogenic fungus; cited from earlier work
soybeans = settings: cited from earlier work
canola seedlings = settings: higher (10–100 μg) doses, petri dishes; cited from earlier work
CalAHAS = settings: cited from earlier work
[2] = tested on: S. cerevisiae BJ5464-NpgA; assay: Yeast growth inhibition in Ile and Val dropout medium; assay type: cell-based; settings: parent yeast strain
[3] = tested on: S. cerevisiae Δilv2 strain expressing AtAHAS; assay: as above; assay type: cell-based; settings: Δilv2 complemented with AtAHAS
[4] = tested on: S. cerevisiae Δilv2 strain expressing ThAHAS; assay: as above; assay type: cell-based; settings: Δilv2 complemented with ThAHAS
[5] = tested on: S. cerevisiae Δilv2 strain expressing ThAHAS^M; assay: as above; assay type: cell-based; settings: Δilv2 complemented with ThAHAS^M

Which results are given for CCCC=CC=CC(=O)C1=C(O)C(CC(O)(C(=O)O)C(C)C)N(C)C1=O (stereo not shown) [HA, harzianic acid]?
inhibition of plant AtAHAS (AtAHAS): No inhibition; Ki (SceAHAS): ~83 µM; Ki ((UniProt Z9DR95LUB2)): 6.65 µM; preferential binding, fold lower in Ki (ThAHAS; filamentous fungal AHAS over yeast SceAHAS): > 10 fold; Ki (ThAHAS^M): 3.39 µM; IC50 (ThAHAS^M): 20 µM; IC50 (ThAHAS K247A): 162 µM; fold increase in IC50 by K247A mutation (ThAHAS K247A; K247A versus ThAHAS): 4 fold; Ki (FuoAHAS): 14 µM; Ki (ScsAHAS): 11 µM; toxicity towards yeast [1]: general toxicity; IC50 (F. oxysporum; Fusarium oxysporum, 48 h, read-out: IC50 of growth inhibition): ~26 µg/mL (≈ 71.1 µM); inhibition of growth (F. oxysporum; grown in the presence of BCAAs (Leu, Ile and Val), RPMI 1640, 48h): inhibition of growth was only observed at very high concentrations; antifungal activity (Sclerotinia sclerotiorum): antifungal activity; antifungal activity (Rhizoctonia solani): antifungal activity; increase of production of soybean pods and seeds (soybeans; field conditions): 5–10%; improvement of stem lengths (soybeans; soybeans, greenhouse conditions): > 40%; effect on growth of canola seedlings (canola seedlings): growth inhibition

With COc1cc(OC)n2nc(S(=O)(=O)Nc3c(Cl)ccc(C)c3Cl)nc2n1 [MT, metosulam] as the compound, how does the Ki (CalAHAS) read?
The Ki was “low nanomolar”.

Which IC50 (ThAHAS^M) does the source give for CCCC=CC=CC(=O)C1=C(O)C(CC(O)(C(=O)O)C(C)C)NC1=O (stereo not shown) [compound 5, demethylharzianic acid] here?
Its IC50 is 37 µM.

For COC(=O)c1ccccc1S(=O)(=O)NC(=O)Nc1nc(C)cc(C)n1 [SM, sulfometuron methyl, reference compound], which IC50 (ThAHAS) is on record?
Its IC50 is ~0.35 µM.

What about the “inhibition of ThAHAS^M” value (ThAHAS^M; even at elevated concentration (100 μM)) of the same compound?
Its value is “no inhibition”.

And the “sensitivity of FuoAHAS” value (FuoAHAS; in vitro assay conditions)?
The value was “completely insensitive”.

What about the “sensitivity of ScsAHAS” value (ScsAHAS; in vitro assay conditions) of the same compound?
Its value is “completely insensitive”.

And the growth inhibition [2]?
The growth inhibition was “potently inhibited”.

And the growth inhibition [3]?
The growth inhibition was “potently inhibited”.

What about the growth inhibition [4] of the same compound?
Its growth inhibition is “potently inhibited”.

What about the growth inhibition [5] of the same compound?
The growth inhibition was “minimal sensitivity”.

Reference: PMC8674378 (Journal of the American Chemical Society, 2021)
